For the test, the system named is ATF4 translation (ISR pathway activation). Briefly: ATF4 Nano Luciferase reporter integrated stress response (ISR) assay in H4 ATF4-NLuc (clone 17) cells. The test is classed as cell-based, human. The source says:
Cellular stress leads to activation of the integrated stress response pathway through one of four eukaryotic initiation factor 2α kinases and halts global translation, while allowing for the translation of select transcripts like ATF4 (activating transcription factor 4) that are important for the response to cellular stress. During normal conditions, small open reading frames (ORFs) in the 5′ UTR of ATF4 occupy the ribosome and prevent translation of the coding sequence of ATF4. During stress conditions however, the ribosome scans past these upstream ORFs and preferentially begins translation at the coding sequence of ATF4. In this way, the translation, and thus protein level of ATF4 is a readout of ISR pathway activation. Thus, a fusion of the uORFs and the beginning of the coding sequence of ATF to a common cellular reporter like nano-luciferase allows for a sensitive and high-throughput readout of ISR pathway activity.
Compounds as provided herein were tested in the following assay. The ATF4 Nano Luciferase reporter was constructed by fusing the human full length 5′ untranslated region (5′-UTR) and a small portion of the coding sequence of the ATF4 gene upstream of the Nano Luciferase (NLuc) coding sequence lacking it's start codon. Specifically, nucleotides +1 through +364 (relative to the transcriptional start site) of ATF4 transcript variant 2 (NCBI NM_182810.2) flanked 5′ by EcoRI and 3′ by BamHI restriction enzyme sites were synthesized and cloned into the EcoRI/BamHI cloning sites of pLVX-EF1a-IRES-Puro lentivirus vector (Clontech). […]. H4 cells were selected with […] Puromycin, and clonal cell lines generated by limiting dilution. We utilized this cell line to generate an integrated stress response (ISR) assay to evaluate the activity of ISR pathway inhibitors via luminescence readout. The H4 ATF4-NLuc (clone 17) cell line is plated at a density of […] in 96-well or 384-well respectively in DMEM+10% fetal bovine serum. 24-hours later test compounds diluted in dimethyl sulfoxide (DMSO) are added for 30 minutes at 37 degree Celsius, followed by ISR pathway activation with 50 um sodium arsenite aqueous solution for 6 additional hours. Nano Glo luciferase reagent (N1150, Promega) is added according to manufacturer instructions and the luminescence signal (corresponding to the level of ATF4 translation and thus ISR pathway activation) is read with a standard plate reader with luminescence detection capabilities.
In the table below, activity of the tested compounds is provided in Table 3 as follows: +++=IC50<1 μM; ++=IC50 1-10 μM; +=IC50>10 μM.

The mark [1] stands for this setting: H4 ATF4-NLuc (clone 17) cells, compounds 30 minutes at 37 degree Celsius, then 50 um sodium arsenite for 6 additional hours, luminescence readout, read-out: IC50.
The mark [2] stands for this setting: Homo sapiens, 0.5 h, H4 ATF4-NLuc (clone 17) cells, compounds 30 minutes at 37 degree Celsius, then 50 um sodium arsenite for 6 additional hours, luminescence readout, read-out: IC50.

Like-named read-outs stand apart in the source and are kept apart here. Bounds are passed on as bounds.

One may read the IC50 as the concentration that inhibits the measured activity by half. On to `O=C(COC1CC(F)C1)NC12CC(NC(=O)c3ccc4cc(C(F)(F)F)ccc4n3)(C1)C2` (stereo not drawn) [Example 54, N-[1-[[2-(3-cis-fluorocyclobutoxy)acetyl]amino]-3-bicyclo[1.1.1]pentanyl]-6-(trifluoromethyl)quinoline-2-carboxamide], for which the IC50 under setting [1] is less than 1000 nM.

Take `O=C(COc1ccc(Cl)c(F)c1)NCC1CCN(C(=O)COC2CC(OC(F)(F)F)C2)C1` (stereo not drawn) [Example 60, 2-(4-chloro-3-fluorophenoxy)-N-((1-(2-(3-cis-(trifluoromethoxy)cyclobutoxy)acetyl)pyrrolidin-3-yl)methyl)acetamide]: the 50% inhibitory concentration (IC50) under setting [2] was less than 1000 nM.

For `O=C(COCC1CC1(F)F)NC12CC(NC(=O)c3ccc4cc(C(F)(F)F)ccc4n3)(C1)C2` (centres unmarked) [Example 55, N-[1-[[2-[(2,2-difluorocyclopropyl)methoxy]acetyl]amino]-3-bicyclo[1.1.1]pentanyl]-6-(trifluoromethyl)quinoline-2-carboxamide], the IC50 under setting [2] was less than 1000 nM.

As for `O=C(COc1ccc(Cl)c(F)c1)NC1CN(c2nnc(COC3CC(OC(F)(F)F)C3)o2)C1` (stereo not drawn) [Example 23, 2-(4-chloro-3-fluoro-phenoxy)-N-[1-[5-[[3-cis-(trifluoromethoxy)cyclobutoxy]methyl]-1,3,4-oxadiazol-2-yl]azetidin-3-yl]acetamide], the concentration for half-maximal inhibition (IC50) under setting [2] was less than 1000 nM.

For `O=C(COc1ccc(Cl)c(F)c1)NC12CC(NC(=O)COC3CC(C(F)(F)F)C3)(C1)C2` (single isomer, unassigned) [12 (second eluting isomer), 2-(4-chloro-3-fluorophenoxy)-N-(3-(2-(3-(trifluoromethyl)cyclobutoxy)acetamido)bicyclo[1.1.1]pentan-1-yl)acetamide], under setting [1], the IC50 is less than 1000 nM.

As to `COC1CC(OCC(=O)NC23CC(NC(=O)COc4ccc(Cl)c(F)c4)(C2)C3)C1` (stereo not drawn) [Example 35, 2-(4-chloro-3-fluoro-phenoxy)-N-[3-[[2-(3-cis-methoxycyclobutoxy)acetyl]amino]-1-bicyclo[1.1.1]pentanyl]acetamide], under setting [2], the concentration for half-maximal inhibition (IC50) is less than 1000 nM.

On to `N#CC1CC(OCC(=O)NC23CC(NC(=O)COc4ccc(Cl)cc4)(C2)C3)C1` (stereo not drawn) [Example 31, 2-(4-chlorophenoxy)-N-[3-[[2-(3-cis-cyanocyclobutoxy)acetyl]amino]-1-bicyclo[1.1.1]pentanyl]acetamide], for which the IC50 under setting [1] was less than 1000 nM.

As to `O=C(COc1ccc(Cl)c(F)c1)NC1C[C@H]2COC[C@@H](C1)N2c1cnn(C2CC(OC(F)(F)F)C2)c1` (stereo partly drawn) [Example 50, 2-(4-chloro-3-fluoro-phenoxy)-N-[(1S,5R,7r)-9-[1-[3-cis-(trifluoromethoxy)cyclobutyl]pyrazol-4-yl]-3-oxa-9-azabicyclo[3.3.1]nonan-7-yl]acetamide], where the note is “Homo sapiens, 0.5 h”, the IC50 was less than 1000 nM.

For `O=C(COC1CC(OC(F)(F)F)C1)NC1CC2(C1)CC(c1nnc(C3CC(OC(F)(F)F)C3)o1)C2` (stereo not drawn) [Example 32, 2-[3-cis-(trifluoromethoxy)cyclobutoxy]-N-[6-[5-[3-cis-(trifluoromethoxy)cyclobutyl]-1,3,4-oxadiazol-2-yl]spiro[3.3]heptan-2-yl]acetamide], the IC50 under setting [2] was less than 1000 nM.

For the compound `O=C(COc1ccc(Cl)cc1)NC12CC(NC(=O)COC3CCC3)(C1)C2` [Example 1, 2-(4-chlorophenoxy)-N-(3-(2-cyclobutoxyacetamido)bicyclo[1.1.1]pentan-1-yl)acetamide], under “Homo sapiens, 0.5 h”, the IC50 was less than 1000 nM.

For `O=C(COc1ccc(Cl)cc1)NC12CC(NC(=O)COC3CC(F)(F)C3)(C1)C2` [Example 2, 2-(4-chlorophenoxy)-N-(3-(2-(3,3-difluorocyclobutoxy)acetamido)bicyclo[1.1.1]pentan-1-yl)acetamide], the IC50 under setting [2] was less than 1000 nM.

Turning to `O=C(COc1ccc(Cl)c(F)c1)NC1CCN(CCOC2CC(OC(F)(F)F)C2)C(=O)C1` (stereo not drawn) [Example 56, 2-(4-chloro-3-fluorophenoxy)-N-(2-oxo-1-(2-(3-cis-(trifluoromethoxy)cyclobutoxy)ethyl)piperidin-4-yl)acetamide], the IC50 under setting [2] is less than 1000 nM.

On to `O=C(COc1ccc(Cl)c(F)c1)NC1CCN(CCO[C@H]2C[C@@H](OC(F)(F)F)C2)CC1` [Example 27, 2-(4-chloro-3-fluoro-phenoxy)-N-[1-[2-[3-cis-(trifluoromethoxy)cyclobutoxy]ethyl]-4-piperidyl]acetamide], for which the IC50 under setting [2] is less than 1000 nM.

As for `O=C(COc1ccc(Cl)c(F)c1)NC1CCN(c2cnn(C3CC(OC(F)(F)F)C3)c2)CC1` (stereo not drawn) [Example 46, 2-(4-chloro-3-fluorophenoxy)-N-(1-(1-(3-cis-(trifluoromethoxy)cyclobutyl)-1H-pyrazol-4-yl)piperidin-4-yl)acetamide], under setting [2], the IC50 is less than 1000 nM.

Take `CC1CC(OCC(=O)NC23CC(NC(=O)COc4ccc(Cl)cc4)(C2)C3)C1` (stereo not drawn) [Example 36, 2-(4-chlorophenoxy)-N-[3-[[2-(3-cis-methylcyclobutoxy)acetyl]amino]-1-bicyclo[1.1.1]pentanyl]acetamide]: under setting [2], the half-maximal inhibitory concentration (IC50) is less than 1000 nM.

With `O=C(COc1ccc(Cl)c(F)c1)NC1CC2(C1)CN(C(=O)COC1CC(C(F)(F)F)C1)C2` (centres unmarked) [Example 17, 2-(4-chloro-3-fluoro-phenoxy)-N-[2-[2-[3-(trifluoromethyl)cyclobutoxy]acetyl]-2-azaspiro[3.3]heptan-6-yl]acetamide], the IC50 under setting [2] was less than 1000 nM.

In the case of `O=C(COC1CC(OC(F)(F)F)C1)NC12CC(NC(=O)c3ccc4c(F)c(F)ccc4n3)(C1)C2` (stereo not drawn) [Example 68, 5,6-difluoro-N-(3-(2-(3-cis-(trifluoromethoxy)cyclobutoxy)acetamido)bicyclo[1.1.1]pentan-1-yl)quinoline-2-carboxamide], the IC50 under setting [2] is less than 1000 nM.

`O=C(COc1ccc(Cl)c(F)c1)NC12CC(NC(=O)COC3CCC3)(C1)C2` [Example 10, 2-(4-chloro-3-fluorophenoxy)-N-(3-(2-cyclobutoxyacetamido)bicyclo[1.1.1]pentan-1-yl)acetamide]: the IC50 under setting [2] was less than 1000 nM.

As to `O=C(COC1CCC1)NC12CC(NC(=O)c3ccc4cc(Cl)ccc4n3)(C1)C2` [Example 65, 6-chloro-N-[1-[[2-(cyclobutoxy)acetyl]amino]-3-bicyclo[1.1.1]pentanyl]quinoline-2-carboxamide], under setting [2], the IC50 is less than 1000 nM.

In the case of `CO[C@@H]1CN(CCOC2CC(OC(F)(F)F)C2)CCC1NC(=O)COc1ccc(Cl)c(F)c1` (stereo partly drawn) [Example 49, 2-(4-chloro-3-fluoro-phenoxy)-N-[trans-3-methoxy-1-[2-[3-cis-(trifluoromethoxy)cyclobutoxy]ethyl]-4-piperidyl]acetamide], under setting [2], the IC50 was less than 1000 nM.

Regarding `O=C(COc1ccc(Cl)cc1)NC12CC(NC(=O)COC3CC(C(F)(F)F)C3)(C1)C2` (single isomer, unassigned) [3 (second eluting isomer), 2-(4-chlorophenoxy)-N-(3-(2-(3-(trifluoromethyl)cyclobutoxy)acetamido)bicyclo[1.1.1]pentan-1-yl)acetamide], the IC50 under setting [1] is less than 1000 nM.

Consider `O=C(COc1ccc(Cl)c(F)c1)NC1CC2(C1)CN(C(=O)COC1CCC1)C2` [Example 19, 2-(4-chloro-3-fluoro-phenoxy)-N-[2-[2-(cyclobutoxy)acetyl]-2-azaspiro[3.3]heptan-6-yl]acetamide], for which the IC50 under setting [2] is less than 1000 nM.

On to `O=C(COc1ccc(Cl)c(F)c1)NC12CC(NC(=O)COC3CC(C(F)F)C3)(C1)C2` (stereo not drawn) [Example 38, 2-(4-chloro-3-fluoro-phenoxy)-N-[3-[[2-[3-cis-(difluoromethyl)cyclobutoxy]acetyl]amino]-1-bicyclo[1.1.1]pentanyl]acetamide], for which, under setting [2], the IC50 is less than 1000 nM.

The values above are taken from US20210130308A1, “MODULATORS OF EUKARYOTIC INITIATION FACTOR 2” (Denali Therapeutics Inc., priority 2018, published 2021).
